Data taken from patent publication US8114581B2, “Methods and compositions for detecting neoplastic cells” (The Regents of the University of California, priority 2005, dated 2012).

Experiments:
Format in all cases: cell-based
Src [1] = molecular target: T1, Src (Homo sapiens, UniProt P12931); experiment: EGF-induced FRET response of Src reporter in HeLa cells
T1 construct: endogenous in cells; host or cells: HeLa
Protocol: The HeLa or MEF cells expressing the desired exogenous proteins were starved with 0.5% FBS for 36-48 h before being subjected to EGF (50 ng ml^−1) or PDGF (10 ng ml^−1) stimulation. During imaging, the cells were maintained in Hanks' balanced salt solution (HBSS) with 20 mMHEPES (pH 7.4) and 2 g 1^−1 D-glucose at 25° C. Images were collected by using MetaFluor 6.0 software (Universal Imaging) with a 440DF20 excitation filter, a 455DRLP dichroic mirror, and two emission filters controlled by a filter changer (480DF30 for CFP and 535DF25 for YFP).
The various plasmids were transfected into HeLa, MEF, SYF−/−, or 293 cells at 80% confluence using the lipofectamine method (Invitrogen). The RetroMax retroviral expression system (Imgenex) was used to introduce genes into HUVECs. Various Src reporters incorporated in PCLNCX vector were co-transfected with PCL-Ampho packaging vector into 293 cells by using lipofectamine. The supernatant of […] 293 cells was collected after 2 days of transfection and filtered through 0.45 um pore filters. HUVECs were infected with 1:1 mixture of the collected supernatant and fresh EGM in the presence of 8 ug/ml polybrene.

Src [2] = molecular target: T1, Src; experiment: Fibronectin-coated bead / laser-tweezer force-induced FRET response in HUVECs; conditions: HUVECs expressing Src reporter, PP1 10 uM
Protocol: (§1) To image the mechanical-force-induced Src activation, HUVECs were first starved with 0.5% FBS for 24 h and then kept in CO2-independent medium without serum (Gibco BRL) at 37° C. in a thermostatic chamber. A Zeiss axiovert inverted microscope equipped with a 440DF20 excitation filter and a 455DRLP dichroic mirror was integrated with the laser-tweezers. CFP and YFP emission images were acquired simultaneously with an ORCA ER CCD camera (Hamamatsu) through a Dual-View module (Optical-Insights). The CFP and YFP images were aligned pixel-by-pixel with our customized Matlab program by maximizing the normalized cross correlation coefficient of CFP and YFP fluorescence intensity images:
(§2) By taking the derivative of rho 2/B(κ) in Otsu's method 30 and calculating its first local minimum, a non parametric method was developed to calculate the intensity threshold to differentiate the edges of HUVECs from the background in CFP or YFP fluorescence intensity images. The intensity threshold was used to generate a binary mask image with values outside the cell set at zero to select the pixels located within the cell body in the CFP/YFP emission ratio images. […] For statistical analysis of long-range activation of Src, a pixel located within a cell at a given time is defined as ‘distally activated’ when: (1) its emission ratio value is above a certain percentage (98%, 90%, 80% and 50% were used as the thresholds) of pixel population in the same cell after 15 min of force stimulation, and (2) the distance between the pixel and the centre of the force-imposed bead is larger than half of the virtual radius of the cell, as shown in the following formula: […]
(§3) This critical force is a measure of the maximum trapping force, at a given laser power, exerted on the bead. […] Since the maximum trapping force occurs when the laser focus is away from the center and close to the edge of the bead, the experimental trapping force with the laser focused at 3.7 um off the bead center in our experiments was calculated from the Ashkin model of trapping force to be 300 pN. […]

Src [3] = experiment: as above; conditions: HUVECs, membrane-targeted reporter, 300 pN; 1 hr incubation (cytochalasin D 0.2 uM, Nocodazole 1 uM); distal, but not local, responses
Protocol: as §1, §2, §3

T1 sequence (P12931 whole entry, species assumed): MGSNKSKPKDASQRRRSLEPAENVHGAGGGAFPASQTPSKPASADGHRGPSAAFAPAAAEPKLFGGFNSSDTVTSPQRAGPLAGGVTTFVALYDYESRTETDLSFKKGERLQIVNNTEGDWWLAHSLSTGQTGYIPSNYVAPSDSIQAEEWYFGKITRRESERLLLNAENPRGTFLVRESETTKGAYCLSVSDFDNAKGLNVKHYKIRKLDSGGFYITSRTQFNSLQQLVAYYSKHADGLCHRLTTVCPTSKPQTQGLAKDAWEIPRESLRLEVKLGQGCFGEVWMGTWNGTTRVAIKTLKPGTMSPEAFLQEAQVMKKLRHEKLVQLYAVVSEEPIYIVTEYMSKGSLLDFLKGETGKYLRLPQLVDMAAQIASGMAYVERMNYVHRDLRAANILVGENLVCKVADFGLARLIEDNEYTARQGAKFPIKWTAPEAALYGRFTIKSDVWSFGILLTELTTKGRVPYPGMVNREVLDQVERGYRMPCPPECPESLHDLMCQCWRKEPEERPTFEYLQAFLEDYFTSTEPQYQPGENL

Row | effect on EGF-induced FRET response of membrane-targeted reporter, inhibitor added after EGF (Src [1]; EGF 50 ng/ml, PP1 10 uM) | effect on EGF-induced FRET response of membrane-targeted reporter, pretreatment with inhibitor (Src [1]; PP1 10 uM for 1 hr before EGF 50 ng/ml) | effect on EGF-induced FRET response of Src reporter, inhibitor added after EGF (Src [1]; cytosolic Src reporter) | effect on EGF-induced FRET response of Src reporter, pretreatment with inhibitor (Src [1]; cytosolic Src reporter) | effect on local FRET response caused by fibronectin-coated beads (Src [2]) | Compound | effect on force-induced distal FRET responses (Src [3])
1 | reversed | prevented | reversed | markedly reduced | reversible | Cc1ccc(-c2nn(C(C)(C)C)c3ncnc(N)c23)cc1 [PP1] | 
2 |  |  |  |  |  | C=C1[C@@H](C)[C@H]2[C@H](Cc3ccccc3)NC(=O)[C@]23[C@H](OC(C)=O)/C=C/[C@@](C)(O)C(=O)[C@@H](C)C/C=C/[C@H]3[C@@H]1O [cytochalasin D] | blocked
3 |  |  |  |  |  | COC(=O)Nc1nc2ccc(C(=O)c3cccs3)cc2[nH]1 [nocodazole] | blocked
